Data as given in patent US20230365602A1, “COMPOUND FOR USE IN THE TREATMENT OF PROTOZOAL DISEASES AND PROCESS FOR PRODUCTION OF SAID COMPOUND” (QUADREL S.R.L., priority 2020, published 2023).
Converted amounts (≈) assume the structure as drawn. “Also recorded” adds a separate entry of the source. Like-named read-outs stand apart in the source and are kept apart here.

What was measured:
[1] = system: L. infantum (MHOM/MA/67/ITMAP-263) intracellular amastigotes; test: Anti-parasitic activity against L. infantum intracellular amastigotes (infection with axenic amastigotes luciferase positive); assay type: cell-based
[2] = Toxicity MTT assay in PMA-differentiated THP-1 cells; assay type: cell-based, human; settings: human, PMA-differentiated THP-1 cells (macrophages); for CC50: THP-1 macrophages, Table 1, read-out: Toxicity CC50 ± SD or NOAEL; for IC50: Table 4b, read-out: Cytotoxicity THP-1 (IC50)
Source text: (§1) The in vitro antiparasitic activity against L. infantum (MHOM/MA/67/ITMAP-263) and the toxicity against THP-1 macrophages is presented in Table 1.

[3] = system: PMA-differentiated THP-1 cells; test: as above; assay type: cell-based, human; settings: for Toxicity MTT assay in PMA-differentiated THP-1 cells: Table 5
Source text: as §1

[4] = system: L. infantum intracellular amastigotes LEM235; test: Anti-leishmanial activity, L. infantum LEM235 intracellular amastigotes; assay type: cell-based; settings: for IC50: Leishmania infantum, read-out: L. infantum intracellular amastigotes LEM235 IC50 ± SEM
Source text: (§2) The in vitro antiparasitic activity of compound 5-cyclopentadecylpentyl (2-(trimethylammonio)ethyl) phosphate (19) against L. infantum (2 species), L. amazonensis, L. donovani and L. major is presented in Table 3, as well as the toxicity against the human monocytic cell Line THP1 and PMA-differentiated THP-1 cells.

[5] = Cytotoxicity, Human Monocytic Cell Line THP1; assay type: cell-based
Source text: as §2

[6] = system: L. major SASKH intracellular amastigotes; test: Anti-leishmanial activity, L. major intracellular amastigotes; assay type: cell-based; settings: Leishmania major; read-out: L. major SASKH intracellular amastigotes IC50 ± SEM
Source text: as §2

[7] = biological target: T1, CYP1A2 (Homo sapiens, UniProt P05177); test: Early toxicity: CYP1A2 inhibition; assay type: in vitro ADME; settings: human, mean ± SD, Table 4a
T1 sequence (P05177 1-516): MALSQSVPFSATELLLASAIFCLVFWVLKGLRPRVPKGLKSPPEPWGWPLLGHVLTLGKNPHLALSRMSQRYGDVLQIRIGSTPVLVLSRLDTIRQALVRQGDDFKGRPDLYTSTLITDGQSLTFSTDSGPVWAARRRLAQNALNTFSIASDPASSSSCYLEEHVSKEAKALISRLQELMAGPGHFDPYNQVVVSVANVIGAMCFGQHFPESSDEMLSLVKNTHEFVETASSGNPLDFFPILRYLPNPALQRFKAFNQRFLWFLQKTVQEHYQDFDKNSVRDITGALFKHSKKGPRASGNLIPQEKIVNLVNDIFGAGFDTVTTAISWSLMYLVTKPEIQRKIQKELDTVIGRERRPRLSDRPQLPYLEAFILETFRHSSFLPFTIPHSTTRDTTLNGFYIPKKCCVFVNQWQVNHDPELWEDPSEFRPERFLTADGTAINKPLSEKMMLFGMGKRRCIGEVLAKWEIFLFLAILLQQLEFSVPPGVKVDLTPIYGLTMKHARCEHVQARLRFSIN

[8] = biological target: CYP2C19 (Homo sapiens, UniProt P33261); test: Early toxicity: CYP2C19 inhibition; assay type: in vitro ADME; settings: human, mean ± SD, Table 4a
[9] = biological target: CYP3A4 (Homo sapiens, UniProt P08684); test: Early toxicity: CYP3A4 inhibition; assay type: in vitro ADME; settings: human, 10 μM
[10] = system: A549; test: Early toxicity: A549 cell growth; assay type: cell-based; settings: for Avg % Cell growth A549: Table 5
[11] = system: Human Erythrocytes; test: In vitro Hemolytic Activity in Human Erythrocytes; assay type: cell-based; settings: for Hemolysis at 100 μM (%) / Hemolysis, HC50: human erythrocytes
Experimental: The assay, which is an indicator of the toxic insult of a compound on the erythrocyte membrane is performed essentially as described in (Calogeropoulou T. et al., J. Med. Chem. 2008, 51, 897-908). […] [table]

[12] = Apparent solubility by nephelometry; assay type: physicochemical; settings: kinetic from dmso stock
[13] = system: T. brucei brucei Lister 427 expressing red-shifted luciferase; test: Efficacy in HAT mice model (acute T. b. brucei infection), live imaging; assay type: in vivo, BALB/c mice; settings: for infection outcome (words): 50 mg/kg/day PO, 7 consecutive days
Source text: (B) Overall evolution of parasite burden assessed by live imaging using IVIS Lumina LT (Perkin Elmer) during and after treatment. T. b. brucei Lister 427 expressing red-shifted luciferase was used in these experiments. DX is the day post treatment. (C) Quantification of bioluminescent signal plotted as average radiance (p/s/cm^2/sr) during and after treatment.
In addition, 5-cyclopentadecylpentyl (2-(trimethylammonio) ethyl) phosphate (19) was effective per os in vivo against T. brucei acute model of infection and also against the long lasting chronic infection model. […] The daily treatment with 50 mg/kg for 13 days lead to a significant decrease of infection and increase in animal survival. […] Altogether 5-cyclopentadecylpentyl (2-(trimethylammonio) ethyl) phosphate (19) is effective in the BALB/c infection model for T. brucei being a possible therapeutical option both for HAT stage I and II.
T. brucei brucei Lister 427 expressing red-shifted luciferase was used in these experiments as described for L. infantum in vivo infection in (Graça N A et al., Antimicrob Agents Chemother. 2016 Mar. 25; 60(4):2532-6). The overall evolution of parasite burden assessed by live imaging using IVIS Lumina LT (Perkin Elmer) during and after treatment. […] To confirm this possibility, the treated mice immune system was suppressed with cyclophosphamide. […] The advantage over pentamidine is the oral administration of compound 19 versus ip administration of pentamidine.

[14] = Gel formation in saline solutions of NaCl; assay type: physicochemical; settings: same conditions
Experimental: This effect is more pronounced at concentrations between 7 and 40 mg/mL at a temperature range between 20° C. and 40° C., preferably at ambient temperature. The homogeneity of the product facilitates homogeneity of dosing, i.e, variability among doses is lower, easy administration of the compound and higher patient acceptability.

[15] = Table 5, read-out: Avg % inhibition CYP3A4
[16] = mean ± SD, Table 4a, read-out: % inhibition CYP3A4

Chain of CYP3A4 (P08684 whole entry): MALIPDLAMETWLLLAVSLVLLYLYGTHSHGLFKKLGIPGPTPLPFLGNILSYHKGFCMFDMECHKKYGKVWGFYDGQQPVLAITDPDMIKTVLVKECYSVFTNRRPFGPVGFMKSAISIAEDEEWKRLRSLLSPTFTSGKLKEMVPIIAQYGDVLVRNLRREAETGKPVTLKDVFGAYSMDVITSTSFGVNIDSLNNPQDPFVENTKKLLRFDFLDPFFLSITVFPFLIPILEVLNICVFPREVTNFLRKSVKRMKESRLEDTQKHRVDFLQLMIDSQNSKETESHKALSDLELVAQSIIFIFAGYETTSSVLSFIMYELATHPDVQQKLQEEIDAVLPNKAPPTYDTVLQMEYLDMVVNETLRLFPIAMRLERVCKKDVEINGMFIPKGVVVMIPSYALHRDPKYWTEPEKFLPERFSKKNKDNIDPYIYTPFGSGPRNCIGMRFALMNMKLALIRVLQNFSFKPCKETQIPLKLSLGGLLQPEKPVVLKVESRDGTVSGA
Chain of CYP2C19 (P33261 whole entry): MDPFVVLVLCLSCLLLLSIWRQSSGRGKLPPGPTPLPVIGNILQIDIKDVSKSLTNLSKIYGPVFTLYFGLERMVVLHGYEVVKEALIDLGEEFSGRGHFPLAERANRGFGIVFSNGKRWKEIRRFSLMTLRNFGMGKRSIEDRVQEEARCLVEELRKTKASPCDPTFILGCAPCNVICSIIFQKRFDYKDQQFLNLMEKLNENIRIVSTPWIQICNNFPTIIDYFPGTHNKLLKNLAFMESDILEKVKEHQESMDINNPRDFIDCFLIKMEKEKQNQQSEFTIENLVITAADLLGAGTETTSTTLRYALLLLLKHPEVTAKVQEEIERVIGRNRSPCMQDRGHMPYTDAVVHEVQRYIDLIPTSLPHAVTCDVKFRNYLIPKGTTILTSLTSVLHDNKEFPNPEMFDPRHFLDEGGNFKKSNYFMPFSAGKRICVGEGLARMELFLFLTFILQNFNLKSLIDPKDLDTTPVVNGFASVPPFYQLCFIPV

| SMILES | CC50 [2] | IC50 [2] | Toxicity MTT assay in PMA-differentiated THP-1 cells [3] | IC50 [4] | IC50 [6] | inhibition at 10 µM [7] | inhibition at 10 µM [8] | inhibition at 10 µM [9, 15] | inhibition at 10 µM [9, 16] | Avg % Cell growth A549 ([10]; 10 μM) | Hemolysis at 100 μM (%) ([11]; 100 μM) | Hemolysis, HC50 [11] | infection outcome (words) [13] | gel formation [14] | also measured |
| --- | --- | --- | --- | --- | --- | --- | --- | --- | --- | --- | --- | --- | --- | --- | --- |
| CCCCCCCCCCCCCCCCOP(=O)([O-])OCC[N+](C)(C)C [Miltefosine, hexadecylphosphocholine, reference compound] | 15.9 ± 1.2 µM | 15.9 ± 1.2 µM | 15.9 ± 1.2 µM | 6.7 ± 1 µM | 43.7 ± 8.34 µM | -20.6 ± 11.8% | 7.92 ± 15.5% | 8.39 ± 8.99% | 8.39 ± 8.99% | 95.80 ± 15.78 (10 μM) % | 96.1% | 38.3 ± 2.8 µM | no in vivo activity | not observed | IC50 ([1]; Leishmania infantum, read-out: Dose Response Curves IC50 ± SD (μM)): 2.51 ± 1.73 µM; IC50 ([1]; Leishmania infantum, read-out: L. infantum intracellular amastigotes (MHOM/MA/67/ITMAP-263) IC50 ± SEM (μM)): 3.2 ± 1.4 µM; CC50 [5]: 28.6 ± 2.48 µM; % cell growth A549 ([10]; at 1 μM): 95.8 ± 15.78%; solubility ([12]; pH 1.6, simulated gastric fluid): 12.5 µM (≈ 5.09 µg/mL); solubility ([12]; pH 5, fessif): > 100 µM; solubility ([12]; pH 6.5, fassif): > 100 µM; solubility ([12]; pH 7.4, aqueous buffer): 25 µM (≈ 10.2 µg/mL); solubility ([12]; water): 25 µM (≈ 10.2 µg/mL); infection outcome (words) ([13]; listed as miltefosine): did not work at all |
| C[N+](C)(C)CCOP(=O)([O-])OCCCCCC1CCCCCCCCCCCCCC1 [Compound 19, 5-cyclopentadecylpentyl (2-(trimethylammonio)ethyl) phosphate] | > 100 µM | > 100 µM | >100 µM | 0.7 ± 0.4 µM | 15.5 ± 1.5 µM | -32.1 ± 9.3% | -18.2 ± 7.01% | -17.6 ± 8.89% | 17.6 ± 8.89% | 108.28 ± 0.09 (10 μM) % | 8.7% | >100 µM | eliminated the infection; also recorded: full clearance of infection | homogeneous gel product | inhibition at 10 µM ([1]; Leishmania infantum, 10 μM, Table 1, read-out: Single Dose Assay 10 μM Mean Inhibitory Activity (%) ± SD): 78 ± 2%; IC50 ([1]; Leishmania infantum, Table 1, read-out: Dose Response Curves IC50 ± SD): 1.4 ± 0.1 µM; IC50 ([1]; Leishmania infantum, Table 3, read-out: L. infantum intracellular amastigotes (MHOM/MA/67/ITMAP-263) IC50 ± SEM): 1.4 ± 0.1 µM; Selectivity Index CC50/IC50 or NOAEL/IC50 ([1]; PMA-differentiated THP-1 CC50 / IC50 L. infantum MHOM/MA/67/ITMAP-263, Table 3): >71; Selectivity Index CC50/IC50 or NOAEL/IC50 ([1]; THP-1 toxicity / L. infantum IC50, Table 1): >71; CC50 ([3]; MTT assay in PMA-differentiated THP-1 cells, Table 3, read-out: Toxicity CC50 ± SD): > 100 µM; CC50 ([3]; Table 2, read-out: Toxicity CC50 ± SD or NOAEL): > 100 µM; Selectivity Index CC50/IC50 ([4]; THP1 CC50 / IC50 L. infantum LEM235): 714; CC50 ([5]; human monocytic cell line THP1, read-out: Cytotoxicity-Human Monocytic Cell Line THP1 CC50 ± SD): > 500 µM; % cell growth A549 ([10]; 10 μM, 100% = not cytotoxic, 0% = cytostatic, −100% = cytotoxic): 108.28 ± 0.09%; percentage of hemolytic activity lower than miltefosine ([11]; 100 μM): approximately 11 fold; solubility ([12]; FaSSIF, pH 6.5, fassif, read-out: Solubility in FaSSIF (pH = 6.5)): > 100 µM; solubility ([12]; FeSSIF, pH 5, fessif, read-out: Solubility in FeSSIF (pH = 5)): > 100 µM; solubility ([12]; PBS, pH 7.4, aqueous buffer, read-out: Solubility in PBS (pH = 7.4)): < 10 µM; solubility ([12]; simulated gastric fluid (SGF), simulated gastric fluid, SGF, pH 1.6, read-out: Solubility in SGF (pH = 1.6)): 12.5 µM; solubility ([12]; water, H2O, read-out: Solubility in H2O): < 10 µM; relapse after treatment ([13]; 3 weeks after treatment, also after cyclophosphamide immune suppression): no relapse was detected |
